Source: patent US20170190671A1, “BIS(ARYL)CATECHOL DERIVATIVES AS HERBICIDES” (E I DU PONT DE NEMOURS AND COMPANY, priority 2014, published 2017)

Columns and labels:
Format in all cases: in vivo
Settings in all cases: scale 0 to 100
[1] = test system: chickweed (common chickweed, Stellaria media); experiment: Test D preemergence
Text: (§1) Seeds of plant species selected from bluegrass (annual bluegrass, Poa annua), blackgrass (Alopecurus myosuroides), canarygrass (Phalaris minor), chickweed (common chickweed, Stellaria media), cutleaf geranium (Geranium dissectum), galium (catchweed bedstraw, Galium aparine), downy bromegrass (Bromus tectorum), field poppy (Papaver rhoeas), field violet (Viola arvensis), green foxtail (Setaria viridis), deadnettle (henbit deadnettle, Lamium amplexicaule), Italian ryegrass (Lolium multiflorum), kochia (Kochia scoparia), lambsquarters (Chenopodium album), oilseed rape (Brassica napus), pigweed (Amaranthus retroflexus), chamomile (scentless chamomile, Matricaria inodora), Russian thistle (Salsola kali), speedwell (bird's-eye speedwell, Veronica persica), spring barley (Hordeum vulgare), spring wheat (Triticum aestivum), wild buckwheat (Polygonum convolvulus), wild mustard (Sinapis arvensis), wild oat (Avenafatua), wild radish (Raphanus raphanistrum), windgrass (Apera spica-venti), winter barley (Hordeum vulgare), and winter wheat (Triticum aestivum) were planted into a silt loam soil and treated preemergence with test chemicals formulated in a non-phytotoxic solvent mixture which included a surfactant.
(§2) At the same time, these species were planted in pots containing Redi-Earth® planting medium (Scotts Company, 14111 Scottslawn Road, Marysville, Ohio 43041) comprising spaghnum peat moss, vermiculite, wetting agent and starter nutrients and treated with postemergence applications of the test chemicals formulated in the same manner. Plants ranged in height from 2 to 18 cm (1- to 4-leaf stage). Treated plants and controls were maintained in a controlled growth environment for 14 to 21 days after which time all species were compared to controls and visually evaluated. Plant response ratings, summarized in Table D, are based on a scale of 0 to 100 where 0 is no effect and 100 is complete control. A dash (-) response means no test result.

[2] = test system: blackgrass (Alopecurus myosuroides); experiment: Test D preemergence
Text: as §1, §2

[3] = test system: bluegrass (annual bluegrass, Poa annua); experiment: Test D preemergence
Text: as §1, §2

[4] = test system: downy bromegrass (Bromus tectorum); experiment: Test D preemergence
Text: as §1, §2

[5] = test system: speedwell (bird's-eye speedwell, Veronica persica); experiment: Test D preemergence
Text: as §1, §2

[6] = test system: canarygrass (Phalaris minor); experiment: Test D preemergence
Text: as §1, §2

[7] = test system: wild buckwheat (Polygonum convolvulus); experiment: Test D preemergence
Text: as §1, §2

[8] = test system: wild mustard (Sinapis arvensis); experiment: Test D preemergence
Text: as §1, §2

[9] = test system: kochia (Kochia scoparia); experiment: Test E preemergence
Method in brief: (§3)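 Preemergence: seeds in silt loam treated with compound in non-phytotoxic solvent with surfactant. Postemergence: plants at 1- to 4-leaf stage (2–18 cm) in peat-based medium sprayed likewise. Greenhouse 14–21 days, then visual rating vs controls, 0 (no effect) to 100 (complete control).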

[10] = test system: Italian ryegrass (Lolium multiflorum); experiment: Test E preemergence
Method in brief: as §3

[11] = test system: Brazilian crabgrass (Digitaria horizontalis); experiment: Test E preemergence
Method in brief: as §3

[12] = test system: fall panicum (Panicum dichotomiflorum); experiment: Test E preemergence
Method in brief: as §3

SMILES: N#Cc1cccc(Oc2ncc(Cl)cn2)c1Oc1ncc(Cl)cn1 [Compound 3, 2,3-bis[(5-chloro-2-pyrimidinyl)oxy]benzonitrile]
- Plant response rating, Chickweed ([1]; 16 g ai/ha): 100
- Plant response rating, Chickweed ([1]; 31 g ai/ha): 100
- Plant response rating, Chickweed ([1]; 62 g ai/ha): 100
- Plant response rating, Chickweed ([1]; 125 g ai/ha): 100
- Plant response rating, Blackgrass ([2]; 16 g ai/ha): 0
- Plant response rating, Blackgrass ([2]; 31 g ai/ha): 10
- Plant response rating, Blackgrass ([2]; 62 g ai/ha): 35
- Plant response rating, Blackgrass ([2]; 125 g ai/ha): 70
- Plant response rating, Bluegrass ([3]; 16 g ai/ha): 0
- Plant response rating, Bluegrass ([3]; 31 g ai/ha): 0
- Plant response rating, Bluegrass ([3]; 62 g ai/ha): 25
- Plant response rating, Bluegrass ([3]; 125 g ai/ha): 85
- Plant response rating, Bromegrass, Downy ([4]; 16 g ai/ha): 0
- Plant response rating, Bromegrass, Downy ([4]; 31 g ai/ha): 0
- Plant response rating, Bromegrass, Downy ([4]; 62 g ai/ha): 5
- Plant response rating, Bromegrass, Downy ([4]; 125 g ai/ha): 15
- Plant response rating, Speedwell ([5]; 16 g ai/ha): 70
- Plant response rating, Speedwell ([5]; 31 g ai/ha): 100
- Plant response rating, Speedwell ([5]; 62 g ai/ha): 100
- Plant response rating, Speedwell ([5]; 125 g ai/ha): 100
- Plant response rating, Canarygrass ([6]; 16 g ai/ha): 0
- Plant response rating, Canarygrass ([6]; 31 g ai/ha): 5
- Plant response rating, Canarygrass ([6]; 62 g ai/ha): 20
- Plant response rating, Canarygrass ([6]; 125 g ai/ha): 80
- Plant response rating, Buckwheat, Wild ([7]; 16 g ai/ha): 0
- Plant response rating, Buckwheat, Wild ([7]; 31 g ai/ha): 30
- Plant response rating, Buckwheat, Wild ([7]; 62 g ai/ha): 75
- Plant response rating, Buckwheat, Wild ([7]; 125 g ai/ha): 100
- Plant response rating, Mustard, Wild ([8]; 16 g ai/ha): 15
- Plant response rating, Mustard, Wild ([8]; 31 g ai/ha): 60
- Plant response rating, Mustard, Wild ([8]; 62 g ai/ha): 95
- Plant response rating, Mustard, Wild ([8]; 125 g ai/ha): 100

SMILES: Clc1cnc(Oc2cccc(Br)c2Oc2ncc(Cl)cn2)nc1 [Compound 19, 2,2′-[[3-bromo-1,2-phenylene]bis(oxy)]bis[5-chloropyrimidine]]
- Plant response rating, Kochia ([9]; 16 g ai/ha): 35
- Plant response rating, Kochia ([9]; 31 g ai/ha): 75
- Plant response rating, Kochia ([9]; 62 g ai/ha): 98
- Plant response rating, Kochia ([9]; 125 g ai/ha): 100
- Plant response rating, Ryegrass, Italian ([10]; 16 g ai/ha): 0
- Plant response rating, Ryegrass, Italian ([10]; 31 g ai/ha): 0
- Plant response rating, Ryegrass, Italian ([10]; 62 g ai/ha): 65
- Plant response rating, Ryegrass, Italian ([10]; 125 g ai/ha): 70
- Plant response rating, Crabgrass, Brazil ([11]; 16 g ai/ha): 0
- Plant response rating, Crabgrass, Brazil ([11]; 31 g ai/ha): 40
- Plant response rating, Crabgrass, Brazil ([11]; 62 g ai/ha): 100
- Plant response rating, Crabgrass, Brazil ([11]; 125 g ai/ha): 100
- Plant response rating, Panicum, Fall ([12]; 16 g ai/ha): 100
- Plant response rating, Panicum, Fall ([12]; 31 g ai/ha): 85
- Plant response rating, Panicum, Fall ([12]; 62 g ai/ha): 98
- Plant response rating, Panicum, Fall ([12]; 125 g ai/ha): 100

SMILES: Fc1cccc(Oc2ncc(Cl)cn2)c1Oc1ncc(Cl)cn1 [Compound 21, 2,2′-[[3-fluoro-1,2-phenylene]bis(oxy)]bis[5-chloropyrimidine]]
- Plant response rating, Kochia ([9]; 16 g ai/ha): 20
- Plant response rating, Kochia ([9]; 31 g ai/ha): 50
- Plant response rating, Kochia ([9]; 62 g ai/ha): 75
- Plant response rating, Kochia ([9]; 125 g ai/ha): 100
- Plant response rating, Ryegrass, Italian ([10]; 16 g ai/ha): 0
- Plant response rating, Ryegrass, Italian ([10]; 31 g ai/ha): 0
- Plant response rating, Ryegrass, Italian ([10]; 62 g ai/ha): 35
- Plant response rating, Ryegrass, Italian ([10]; 125 g ai/ha): 70
- Plant response rating, Crabgrass, Brazil ([11]; 16 g ai/ha): 0
- Plant response rating, Crabgrass, Brazil ([11]; 31 g ai/ha): 65
- Plant response rating, Crabgrass, Brazil ([11]; 62 g ai/ha): 100
- Plant response rating, Crabgrass, Brazil ([11]; 125 g ai/ha): 100
- Plant response rating, Panicum, Fall ([12]; 16 g ai/ha): 35
- Plant response rating, Panicum, Fall ([12]; 31 g ai/ha): 75
- Plant response rating, Panicum, Fall ([12]; 62 g ai/ha): 100
- Plant response rating, Panicum, Fall ([12]; 125 g ai/ha): 100
